In patent publication US12569494B2, “Compositions and methods to promote thymic regeneration” (Fred Hutchinson Cancer Center, priority 2018, dated 2026):

Legend:
[1] = system: Ex-vivo ECs (exECs); assay: Bmp4 expression by qPCR in ex-vivo thymic endothelial cells (exECs); assay type: cell-based, mice; conditions: 50 μM Rho GTPase inhibitor, 20 h overnight, qPCR (FIG. 7A)
Method: (§1) FIGS. 7A, 7B. Rho GTPase inhibition, using several small molecule inhibitors, promotes the expression of Bmp4 and the II12p40 subunit of IL-23. Ex-vivo ECs (exECs) were generated from FACS purified ECs from the thymus and transduced with lentivirus containing the adenoviral gene E4orf1, as described here Proc Natl Acad Sci USA. 2008 Dec. 9; 105(49):19288-93. The exECs were cultured in Advanced DMEM-F12 (Gibco Life Technologies 12634-028) with 20% FBS, 10 mM HEPES buffer, 1% Glutamax (Life Technologies 35050061), 1% Pen Strep, 1% Non-Essential Amino Acids (Life Technologies 11140050), 50 μg/ml Endothelial cell supplement (Alfa Aesar J64516, BT-023), 5 μM SB431542 (R&D Systems 1614), 20 ng/ml FGF (Peprotech 100-18B), 10 ng/ml VEGF (Peprotech 450-32) at 37° C., 5% O2 and 5% CO2. […] Bmp4 and II-12p40 expression were determined by qPCR (exECs, n=3-6 wells from 2 separate experiments; DCs, n=3 mice).
(§2) FIGS. 10A, 10B: In vitro treatment with a synthetic miR29c mimic reduces the expression of Bmp4 & IL-23, in ECs and DCs, respectively. exECs and DCs were generated and maintained as described in FIGS. 7A, 7B. […] Bmp4 and IL-23 expression were determined by qPCR (n=3).

[2] = system: exECs; assay: miR29 family expression by qPCR in exECs after Rac1,2,3 inhibition; assay type: cell-based, mice; conditions: 50 μM inhibitor, qPCR (FIG. 11)
Method: FIGS. 7A, 7B. Rho GTPase inhibition, using several small molecule inhibitors, promotes the expression of Bmp4 and the II12p40 subunit of IL-23. Ex-vivo ECs (exECs) were generated from FACS purified ECs from the thymus and transduced with lentivirus containing the adenoviral gene E4orf1, as described here Proc Natl Acad Sci USA. 2008 Dec. 9; 105(49):19288-93. The exECs were cultured in Advanced DMEM-F12 (Gibco Life Technologies 12634-028) with 20% FBS, 10 mM HEPES buffer, 1% Glutamax (Life Technologies 35050061), 1% Pen Strep, 1% Non-Essential Amino Acids (Life Technologies 11140050), 50 μg/ml Endothelial cell supplement (Alfa Aesar J64516, BT-023), 5 μM SB431542 (R&D Systems 1614), 20 ng/ml FGF (Peprotech 100-18B), 10 ng/ml VEGF (Peprotech 450-32) at 37° C., 5% O2 and 5% CO2. Thymic dendritic cells (DCs) were obtained from the thymus of 6 week old C57BL/6 mice, where post enzymatic digestion CD11c+ cells were isolated using magnetic beads (Miltenyi Biotech 130-108-338), and cultured in DMEM plus 10% FBS and 1% PenStrep at 37° C., 21% O2 and 5% CO2. The exECs and DCs were separately treated with 50 μM of the individual Rho GTPase inhibitors: RhoA (Millipore/Sigma, Rhosin, CAS 1173671-63-0, 555460-25MG), ROCK (TC-S 700, Tocris, 4961), Rac1,2,3 (Tocris, EHT 1864, 2161), and Cdc42 (Millipore/Sigma, CDC42 Inhibitor III, ZCL278, 500503) for 20 h overnight before being lysed and prepared for RNA extraction. Bmp4 and II-12p40 expression were determined by qPCR (exECs, n=3-6 wells from 2 separate experiments; DCs, n=3 mice).
FIG. 11. miR29c expression is reduced after Rac1 inhibition in ECs. exECs were treated with 50 μM Rac1,2,3 (Tocris, EHT 1864, 2161) inhibitor as described in FIGS. 7A, 7B. cDNA was prepared from isolated RNA using the Taqman Advanced miRNA cDNA Synthesis kit (Thermo Fisher A28007), and relative miR29c expression was assessed by qPCR (primers from Thermo Fisher A25576).

[3] = system: Thymic dendritic cells (DCs); assay: Il-12p40 / IL-23 expression by qPCR in thymic dendritic cells (DCs); assay type: cell-based, C57BL/6 mice; conditions: 50 μM Rho GTPase inhibitor, 20 h overnight, qPCR (FIG. 7B)
Method: as §1, §2

[4] = system: ECs; assay: BMP4 expression in ECs after ATP; assay type: cell-based; conditions: NF-kB independent manner

| Structure (SMILES) | Bmp4 expression [1] | miR29c expression ([2]; compared with untreated) | miR29a levels [2] | miR29b levels [2] | iI-12p40 expression [3] | BMP4 expression [4] |
| --- | --- | --- | --- | --- | --- | --- |
| Cl.Cl.O=c1cc(CN2CCOCC2)occ1OCCCCCSc1ccnc2cc(C(F)(F)F)ccc12 (racemic) [EHT 1864, 5-(5-(7-(Trifluoromethyl)quinolin-4-ylthio)pentyloxy)-2-(morpholinomethyl)-4H-pyran-4-one dihydrochloride] | significantly upregulated | significantly reduced | not reduced | not reduced | significantly upregulated | – |
| Nc1ncnc2c1ncn2[C@@H]1O[C@H](COP(=O)(O)OP(=O)(O)OP(=O)(O)O)[C@@H](O)[C@H]1O [ATP] | – | – | – | – | – | induces |
| Cl.N[C@H](Cc1c[nH]c2ccccc12)C(=O)N/N=C/c1ccc2nccnc2c1 [Rhosin, D-Tryptophan (2E)-2-(6-quinoxalinylmethylene)hydrazide hydrochloride] | significantly upregulated | – | – | – | significantly upregulated | – |
